Source: US5468875A, “1-azabicycloheptane derivatives” (American Home Products Corporation, priority 1994, dated 1995)
Like-named read-outs stand apart in the source and are kept apart here.

Columns and labels:
m1 receptor = m1 receptor (Homo sapiens, UniProt P11229); test: biochemical; settings: ml 3H QNB Binding in CHO cells Ki, 0.23 nM [3H]QNB, 37° C., one hour
[1] = biological target: T1, M1 acetylcholine receptors (Homo sapiens, UniProt P11229); test: stimulation of phosphoinositide (PI) hydrolysis in CHO cells transfected with M1 receptor cDNA; type: cell-based; settings: for Emax: CHO, 1 h; for functional m1 muscarinic agonism: exo versus endo, in words; for EC50: m1 receptors in CHO cells, read-out: % PI Hydrolysis ml receptors in CHO cells ED50
T1 sequence (P11229 1-460): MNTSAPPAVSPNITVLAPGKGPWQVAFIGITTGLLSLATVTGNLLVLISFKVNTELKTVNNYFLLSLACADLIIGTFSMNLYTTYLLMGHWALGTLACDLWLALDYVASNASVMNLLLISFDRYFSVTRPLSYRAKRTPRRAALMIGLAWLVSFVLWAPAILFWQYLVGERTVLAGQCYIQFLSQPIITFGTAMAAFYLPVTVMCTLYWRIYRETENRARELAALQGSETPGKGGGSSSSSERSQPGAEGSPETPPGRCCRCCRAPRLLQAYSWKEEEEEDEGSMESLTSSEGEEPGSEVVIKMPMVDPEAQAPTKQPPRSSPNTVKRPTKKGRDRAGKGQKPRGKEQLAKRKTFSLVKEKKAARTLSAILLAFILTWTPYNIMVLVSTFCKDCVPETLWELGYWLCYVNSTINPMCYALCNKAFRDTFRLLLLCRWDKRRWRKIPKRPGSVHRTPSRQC

[2] = tested on: scopolamine disrupted rat performance; test: eight arm radial maze test, scopolamine disrupted performance; type: in vivo, Sprague-Dawley male rats; settings: ip, rats, test compound i.p., scopolamine HBr 0.3 mg/kg, s.c., read-out: minimum effective dose (MED), reversal of scopolamine disrupted rat performance
Experimental: The compound of Example 3 was also tested in the eight arm radial maze test procedure in which Sprague-Dawley male rats at 85% of their free feeding weight are trained to obtain two food pellets from food cups placed at the ends of four of the eight arms radiating from a circular central area of the maze, in a five minute period. After training to a level of error (rerum to a previously entered arm is error) equal to or less than 2, the rats performance is disrupted with scopolamine HBr (0.3 mg/kg, s.c.) and test compound dosage (i.p.). The number of errors are then determined and compared with control receiving scopolamine alone.

[3] = tested on: scopolamine treated animals; test: reversal of scopolamine-induced hyperactivity, swim tank test; type: in vivo, Male CFW mice; settings: Mus musculus, ip, 5 min, mice, scopolamine.HBr 0.3 mg/kg i.p., swim distance, read-out: minimum effective dose (MED), reversal of hyperactivity of scopolamine treated animals
Experimental: The compound of Example 3, representative of the other compounds of this invention, was also tested in accordance with the procedure of Symons et al, Soc. Neuroscience Abstracts 12:2, 897 (1986) in which Male CFW mice, 25 to 35 grams in weight are given the test compound in suitable vehicle plus 0.3 mg/kg scopolamine.HBr in suitable vehicle, i.p.(3 groups of 12 animals each) or vehicle alone (1 group of 12 animals ) or vehicle plus scopolamine.HBr (1 group of 12 animals). The mice are placed in a swim tank, individually, containing 10 cm H2 O for a period of 5 minutes and the distance each animal swims is recorded.

[4] = tested on: patients with mild to moderate Alzheimer's Disease; settings: cited from earlier work; for improvement in memory: patients with mild to moderate Alzheimer's Disease
[5] = cited from earlier work
muscarinic = settings: cited from earlier work
m1 receptors = settings: cited from earlier work
[6] = read-out: % PI Hydrolysis ml receptors in CHO cells 30x Ki (μM) carb=100%
[7] = read-out: % PI Hydrolysis ml receptors in CHO cells maximum % carbachol=100%

Q: With `CNC(=O)O[C@H]1CN2CC[C@H]1C2` (relative stereo) [Example 1, (exo)-Methylcarbamic acid 1-aza-bicyclo[2.2.1]hept-3-yl ester] as the molecule, how does the Ki (m1 receptor) read?
A: Its Ki is 29.3 µM.

Q: What about the Emax [1, 6] of the same molecule?
A: Its Emax is 61.9%.

Q: And the Emax [1, 7]?
A: Its Emax is 54.9%.

Q: What about the “functional m1 muscarinic agonism” value [1] of the same molecule?
A: The value was “enhanced muscarinic agonism”.

Q: And the EC50 [1]?
A: Its EC50 is 6.9 µM.

Q: For `CNC(=S)O[C@H]1CN2CC[C@H]1C2` (relative stereo) [Example 4, (exo)-Methylthiocarbamic acid 1-aza-bicyclo[2.2.1]hept-3-yl ester], which Ki (m1 receptor) is on record?
A: Its Ki is 3.72 µM.

Q: What about the Emax [1, 6] of the same molecule?
A: Its Emax is 21.8%.

Q: For `O=C(NCC(F)(F)F)O[C@H]1CN2CC[C@H]1C2` (relative stereo) [Example 9, (exo)-(2.2.2-Trifluoroethyl)carbamic acid 1-aza-bicyclo[2.2.1]hept-3-yl ester], which Ki (m1 receptor) is on record?
A: Its Ki is 14.5 µM.

Q: With `O=C(NC1CC1)O[C@H]1CN2CC[C@H]1C2` (relative stereo) [Example 11, (exo)-Cyclopropylcarbamic acid 1-aza-bicyclo[2.2.1]hept-3-yl ester] as the molecule, how does the Ki (m1 receptor) read?
A: The Ki was 1.81 µM.

Q: And the Emax [1, 6]?
A: The Emax was 10.1%.

Q: For `CNC(=O)O[C@H]1CN2CC[C@@H]1C2` (relative stereo) [endo azacycloheptane analog], which “functional m1 muscarinic agonism” value [1] is on record?
A: The value was “not”.

Q: What does the source list for `CNC(=O)O[C@H]1CN2CC[C@H]1C2` (single isomer, unassigned) [Example 2, (+)-(exo)-Methylcarbamic acid 1-aza-bicyclo[2.2.1]hept-3-yl ester]?
A: Ki (m1 receptor): 41.8 µM; minimal effective dose [2]: 1 mg/kg

Q: What does the source list for `CNC(=O)O[C@H]1CN2CC[C@H]1C2` (single isomer, unassigned) [Example 3, (-)-(exo)-Methylcarbamic acid 1-aza-bicyclo[2.2.1]hept-3-yl ester]?
A: Ki (m1 receptor): 26.6 µM; Emax [1, 6]: 71.9%; Emax [1, 7]: 68.7%; EC50 [1]: 9.8 µM; minimal effective dose [3]: 30 mg/kg

Q: For `CNC(=S)O[C@H]1CN2CC[C@H]1C2` (single isomer, unassigned) [Example 5, (+)-(exo)-Methylthiocarbamic acid 1-aza-bicyclo[2.2.1]hept-3-yl ester], which Ki (m1 receptor) is on record?
A: Its Ki is 6.93 µM.

Q: And the Emax [1, 7]?
A: The Emax was 51.5%.

Q: And the EC50 [1]?
A: The EC50 was 2.9 µM.

Q: What does the source list for `CNC(=S)O[C@H]1CN2CC[C@H]1C2` (single isomer, unassigned) [Example 6, (-)-(exo)-Methylthiocarbamic acid 1-aza-bicyclo[2.2.1]hept-3-yl ester]?
A: Ki (m1 receptor): 14.5 µM; % PI Hydrolysis ml receptors in CHO cells maximum % carbachol=100% ([1]; cho cells, 60 min): 69.7%; EC50 [1]: 6.3 µM

Q: Which Ki (m1 receptor) does the source give for `CCNC(=O)O[C@H]1CN2CC[C@H]1C2` (single isomer, unassigned) [Example 7, (+)-(exo)-Ethylcarbamic acid 1-aza-bicyclo[2.2.1]hept-3-yl ester] here?
A: Its Ki is 14.3 µM.

Q: What does the source list for `CCNC(=O)O[C@H]1CN2CC[C@H]1C2` (single isomer, unassigned) [Example 8, (-)-(exo)-Ethylcarbamic acid 1-aza-bicyclo[2.2.1]hept-3-yl ester]?
A: Ki (m1 receptor): 21.5 µM; Emax [1, 6]: 58.8%

Q: With `O=C(NCC(F)(F)F)O[C@H]1CN2CC[C@H]1C2` (single isomer, unassigned) [Example 10, (-)-(exo)-(2.2.2-Trifluoroethyl)carbamic acid 1-aza-bicyclo[2.2.1]hept-3-ylester] as the molecule, how does the Ki (m1 receptor) read?
A: The Ki was 17.6 µM.

Q: With `O=C(NC1CC1)O[C@H]1CN2CC[C@H]1C2` (single isomer, unassigned) [Example 12] as the molecule, how does the Ki (m1 receptor) read?
A: Its Ki is 20.5 µM.

Q: What does the source list for `C#CCNC(=O)O[C@H]1CN2CC[C@H]1C2` (single isomer, unassigned) [Example 13, (-)-(exo)-Propargylcarbamic acid 1-aza-bicyclo[2.2.1]hept-3-yl ester]?
A: Ki (m1 receptor): 14.5 µM; Emax [1, 6]: 39.4%

Q: Which results are given for `COC(=O)C1=CCCN(C)C1` [Arecoline, arecoline]?
A: improvement in memory [4]: demonstrated memory improvement in patients with mild to moderate Alzheimer's Disease; half-life [5]: short half-life

Q: For `CNC(=O)OC1CN2CCCC1C2` (stereo not drawn) [exo-1-azabicyclo[3.2.1oct-6-yl-N-methylcarbamate], which muscarinic activity (muscarinic) is on record?
A: The muscarinic activity was “having muscarinic activity”.

Q: With `CN(C)C(=O)OC1CC2CCCN(C2)C1` (stereo not drawn) [exo-1-azabicyclo[3.3.1]non-3-yl-N,N-dimethylcarbamate] as the molecule, how does the muscarinic activity (muscarinic) read?
A: Its muscarinic activity is “having muscarinic activity”.

Q: For `CNC(=O)OC1CC2CCCN(C2)C1` (stereo not drawn) [exo-1-azabicyclo[3.3.1]non-3-yl-N-methylcarbamate], which muscarinic activity (muscarinic) is on record?
A: The muscarinic activity was “having muscarinic activity”.

Q: With `C[C@@H]1O[C@H](C[N+](C)(C)C)C[C@H]1O` [muscarine] as the molecule, how does the “activation of m1 receptors” value (m1 receptors) read?
A: Its value is “able to fully activate m1 receptors”.

Q: For `Nc1c2c(nc3ccccc13)CCCC2` [tactine], which adverse side effects ([4]; higher doses) is on record?
A: Its adverse side effects is “adverse side effects especially at the higher doses where it is most effective”.

Q: And the improvement in memory [4]?
A: The improvement in memory was “improvement in memory can be shown in patients with mild to moderate Alzheimer's Disease”.
